From article PMC11325505, “Nitrogen-Containing Flavonoids—Preparation and Biological Activity” (ACS Omega, 2024)
Values after ≈ are worked out from the molar mass of the structure shown. Read-outs that look alike come from different tables or passages of the source.

Assays:
[1] = test system: S. aureus MRSA 9; experiment: Antibacterial activity, multidrug-resistant strain; type: cell-based; conditions: for IC50: Staphylococcus aureus, MRSA, multidrug-resistant strain, three repetitions ± SEM; for effect of the antibiotic alone on the multidrug-resistant clinical strain: breakpoint concentrations (1 mg/L)
Description: (§1) To evaluate the ability to modulate bacterial resistance, the tested flavonoids themselves cannot exert antimicrobial activity; therefore, the nontoxic concentration was used, as indicated in Table S5. Clinically relevant antibiotics were selected at breakpoint concentrations for susceptibility testing according to the European Committee on Antimicrobial Susceptibility Testing (EUCAST, version 11.0). […] Flavonoids and their derivatives (from 1 μM to the highest nontoxic concentration) were used in combination with the breakpoint concentration of the antibiotics. After coincubation, the minimum inhibitory concentration (MIC) of flavonoids inhibiting the visible growth of bacteria was determined (Table 2).
(§2) Sensitization of multidrug-resistant clinical bacterial strains was performed according to ref[15]. Antibiotic cutoff concentration was chosen according to the European Committee on Antimicrobial Susceptibility Testing (EUCAST, Clinical breakpoints–bacteria, ver. 11.0). The 200 μM concentration of the derivatives was chosen as the highest test concentration. The absorbance detected at 600 nm was then used to estimate the number of viable cells after 24 h of incubation at 37 °C and 120 rpm.
(§3) Experiments were performed with the respective number of replicates indicated in each figure/table. MIC was determined as IC70. Both IC70 and IC50 values were calculated using the following nonlinear regression in the software GraphPad Prism: […]

[2] = test system: RAW 264.7 cells; experiment: Cellular antioxidant activity (CAA); type: cell-based, Murine; conditions: Mus musculus, RAW264.7, macrophages RAW 264.7; average of four repetitions ± standard error of the mean
Description: To evaluate the antioxidant activity of the prepared derivatives and the respective parent compounds, cellular antioxidant activity (CAA) was measured in macrophages. Compared to other in vitro antioxidant assays, this method provides partial information about the uptake and metabolism of the compounds, because, in this assay, they must first enter the cell to exert antioxidant activity.[31] […] Derivatization of quercetin at C-8 with 4-fluoroaniline (5) increased the antioxidant activity of quercetin by 1.7-fold. […] The concentration of these derivatives required to halve the cellular radicals decreased 1.5-fold compared to luteolin.
Cellular antioxidant capacity was evaluated as previously described.[31],[39] Briefly, 100 μL of RAW 264.7 cells with a density corresponding to 1 × 10^6 cells/mL were split into 96-well plates. After 24 h, cells were washed with PBS, and DMEM supplemented with DCFH-DA (0.0125 mg/mL) was added to each well together with the tested samples in the concentration range of 1.5–200 μM. After 1 h incubation in a CO2 incubator, the medium was replaced with AAPH solution (0.16 mg/mL in PBS), and fluorescence was immediately recorded (ex./em. 485/540 nm) for 2 h in 5 min intervals.

[3] = test system: interleukin 6 (IL-6) production by RAW 264.7 stimulated by LPS; experiment: Anti-inflammatory activity: IL-6 production by LPS-stimulated macrophages; type: cell-based, Murine; conditions: Mus musculus, RAW264.7; LPS-stimulated RAW 264.7; average of four repetitions ± SEM
Description: (§4) The anti-inflammatory activity of flavonoids was evaluated as their ability to decrease the production of signaling molecules that mediate inflammation, such as nitric oxide (NO), tumor necrosis factor (TNF-α), and interleukin 6 (IL-6), in LPS-stimulated macrophages.
(§5) The anti-inflammatory activity of the tested flavonoids was determined as the ability to reduce the production of nitric oxide (NO), tumor necrosis factor (TNF-α), and interleukin 6 (IL-6) by RAW 264.7 stimulated by LPS, as previously described.[39],[40] Briefly, 1 × 10^6 cells/mL was seeded into the 96-well plate (100 μL/well). After 48 h, LPS (100 ng/mL) and the samples (3–100 μM) were added to the MEM medium. After 24 h, the medium was mixed with Griess reagent (0.04 g/mL) at a 1:1 ratio. The absorbance was measured after 15 min at 540 nm. Cell viability was determined using the resazurin assay.
(§6) To determine TNF-α levels, cells were precultivated with the tested compounds for 24 h. After 2 h of incubation with LPS, the medium was diluted 1:10 with ELISA diluent. To determine the level of IL-6, cells were cultivated for 6 h with LPS and the tested compounds. Cytokine production was determined using an uncoated ELISA performed according to the manufacturer’s instructions.

[4] = test system: immortalized human keratinocytes (HaCaT); experiment: Cytotoxicity (resazurin assay), keratinocytes; type: cell-based; conditions: 72 h incubation, resazurin, average of three repetitions ± SEM, read-out: HaCaT IC50 (concentration that halved the viability)
Description: (§7) The cytotoxicity of the prepared derivatives was evaluated by their ability to decrease the viability of immortalized human keratinocytes (HaCaT) and human dermal fibroblasts (HDF).
(§8) 100 μL of cell suspension containing 10^5 cells/mL was pipetted into a 96-well plate. After 24 h incubation, the tested compounds were added in the concentration range 12.5–200 μM. After 72 h incubation, the cell viability was tested by standard resazurin assay.[41] Briefly, the cells were washed with PBS and incubated with 100 μL of resazurin solution (0.025 mg/mL) for 2 h. The fluorescence was measured at a wavelength of 560 nm excitation/590 nm emission.

[5] = test system: Staphylococcus aureus MRSA 9; experiment: Modulation of antibiotic-resistant phenotype (flavonoid plus breakpoint concentration of antibiotic); type: cell-based; conditions: for minimum inhibitory concentration (MIC) in the presence of erythromycin: erythromycin at breakpoint concentration 1 mg/L; for minimum inhibitory concentration (MIC) in the presence of erythromycin / minimum inhibitory concentration (MIC) in the presence of gentamicin: MIC determined as IC70, three repetitions ± SEM; for minimum inhibitory concentration (MIC) in the presence of gentamicin: gentamicin at breakpoint concentration 1 mg/L
Description: as §1, §2, §3

[6] = test system: nitric oxide (NO) production by RAW 264.7 stimulated by LPS; experiment: Anti-inflammatory activity: NO production by LPS-stimulated macrophages; type: cell-based, Murine; conditions: Mus musculus, RAW264.7; LPS-stimulated RAW 264.7; average of four repetitions ± SEM
Description: as §4, §5

[7] = test system: human dermal fibroblasts (HDF); experiment: Cytotoxicity (resazurin assay), fibroblasts; type: cell-based; conditions: 72 h incubation, resazurin, average of three repetitions ± SEM, read-out: HDF IC50 (concentration that halved the viability)
Description: as §7, §8

[8] = test system: S. aureus CCM 4223; experiment: Antibacterial activity, antibiotic-sensitive strain; type: cell-based; conditions: Staphylococcus aureus, CCM4223, three repetitions ± SEM
[9] = test system: tumor necrosis factor (TNF-α) production by RAW 264.7 stimulated by LPS; experiment: Anti-inflammatory activity: TNF-α production by LPS-stimulated macrophages; type: cell-based, Murine; conditions: Mus musculus, RAW264.7; LPS-stimulated RAW 264.7; average of four repetitions ± SEM; read-out: TNFα production IC50
Description: as §4, §5, §6

[10] = test system: MRSA 3596; experiment: Mode of antimicrobial action with erythromycin or gentamicin, ermA- and aadD-positive strain; type: cell-based, S. aureus; conditions: MRSA 3596 (aadD)
Text: Erythromycin is a macrolide antibiotic that inhibits proteosynthesis by binding to the 50S subunit of the ribosome. In Staphylococcus species, resistance to erythromycin is associated with the presence of methyltransferases (encoded by erm genes) that alter the ribosomal target site. Another typical mechanism of resistance to erythromycin is the presence of an ATP-dependent efflux pump encoded by the msr(A) gene or a major facilitator superfamily (MFS) pump encoded by the lmrS gene. Both efflux pumps reduce the concentration of erythromycin in the cell below the therapeutic dose by transporting it across the membrane to the extracellular space. Another erythromycin resistance gene is the mph(C) gene, the product of which is a phosphotransferase that alters the structure of macrolide antibiotics. To elucidate the mechanism of erythromycin resistance modulation in S. aureus, further tests were performed with the strains MRSA 331 and MRSA 3596, which inactivate erythromycin via a single mechanism (ermC and ermA, respectively). […] Therefore, if the activity was not strain-specific, it would be necessary to consider the effect of the derivatives on this pump (Table 3).
(§9) Among the mechanisms of resistance to gentamicin previously described in S. aureus, the presence of enzymes that alter the structure of aminoglycosides is crucial. These enzymes can transfer nucleotides, phosphates, or acetyls to various −OH or −NH2 groups of gentamicin, preventing its subsequent interaction with the cellular target, i.e., the 30S ribosomal subunit. The bifunctional aminoglycoside-modifying enzyme with acetylation and phosphotransferase activities encoded by the gene aac(6’)/aph(2’), 4′,4″ adenyltransferase encoded by the aadD gene, and aminoglycoside O-phosphotransferase encoded by the gene aph(3′) are the most important.[37] […] For this reason, further testing continued using strains MRSA 3596 and MRSA 1584, which inactivate gentamicin only by a single mechanism (aadD and aac(6’)-aph(2’’), respectively).
as §2, §3

[11] = test system: MRSA 1584; experiment: Mode of antimicrobial action with gentamicin, aac(6')/aph(2')-positive strain; type: cell-based, Staphylococcus aureus
Text: as §9, §2, §3

[12] = test system: transmembrane efflux pumps; experiment: Ethidium bromide accumulation assay; type: cell-based, S. aureus MSSA 2; conditions: compared with comparator CCCP; concentrations 25–100 μM
Text: The application of antibiotics often leads to oxidative stress in bacteria, which triggers the efflux pump systems that contribute to antimicrobial resistance.[34] Therefore, modulation of the efflux system has been proposed as another plausible target of derivatives. The efflux pump inhibitor carbonyl cyanide 3-chlorophenylhydrazone (CCCP) was used as a comparator in our assay. Its action destroys the proton-motive force at the membrane so that the efflux pump cannot transport substrates out of the cell. One such universal substrate is ethidium bromide, the accumulation of which in the cell can be measured using fluorescence.
The accumulation assay was performed according to previously published methods with minor modifications.[15],[42] Briefly, a bacterial culture of S. aureus MSSA 2 cultured overnight in the presence of colistin (4 mg/L) to induce oxidative stress and activate efflux system[34] was diluted in PBS to OD600 nm = 0.6. The suspension was centrifuged (13,000 × g; 3 min), resuspended in fresh PBS, and distributed into the wells of a black 96-well microtiter plate (ThermoFisher Scientific). Samples were diluted with EtBr solution (4 μg/mL). 50 μL of the mixture was added to 50 μL of the bacterial suspension. The reaction was monitored using SpectraMax iD5Multi-Mode Microplate Reader (ex/em = 530/600 nm) every 60 s for 60 min.

IC50 [1] [µM]	IC50 [2] [µM]	IC50 [3] [µM]	minimum inhibitory concentration (MIC) in the presence of erythromycin [5] [µM]	minimum inhibitory concentration (MIC) in the presence of gentamicin [5]	IC50 [6] [µM]	IC50 [8] [µM]	Compound	IC50 ([4]; Homo sapiens, HaCaT, 72 h) [µM]	IC50 ([7]; Homo sapiens, Fibroblast, 72 h) [µM]	IC50 [9] [µM]	further results
138 ± 1.2	7.5 ± 0.7	32.3 ± 2.3	>200	>200 ^note 2 μM	52.3 ± 2.3	44 ± 0.1	COc1ccc(Nc2c(O)cc(O)c3c(=O)c(O)c(-c4ccc(O)c(O)c4)oc23)cc1 [compound 6, 2-(3,4-Dihydroxyphenyl)-8-(4-methoxyanilino)-3,5,7-trihydroxy-4H–1-benzopyran-4-one]	45.2 ± 3.5	79.9 ± 1.5	> 50	inhibition at 200 µM ([5]; Staphylococcus aureus, MRSA, with gentamicin 1 mg/L, maximum concentration used (200 μM), read-out: maximum concentration used inhibited bacterial growth to): 50.7%
–	–	–	–	–	–	–	CNC(C)C1CCC(N)C(OC2C(N)CC(N)C(OC3OCC(C)(O)C(NC)C3O)C2O)O1 (centres unmarked) [gentamicin, reference compound]	–	–	–	effect of the antibiotic alone on the multidrug-resistant clinical strain [1]: did not affect
> 200	5.7 ± 1	> 50	>200	>200 µM	26.6 ± 0.4	> 200	COc1cc(Nc2c(O)cc(O)c3c(=O)c(O)c(-c4ccc(O)c(O)c4)oc23)cc(OC)c1 [compound 9, 2-(3,4-Dihydroxyphenyl)-8-(3,5-dimethoxyanilino)-3,5,7-trihydroxy-4H–1-benzopyran-4-one]	56.9 ± 1.9	76 ± 3	> 50	–
–	–	–	–	–	–	–	CC[C@H]1OC(=O)[C@H](C)[C@@H](O[C@H]2C[C@@](C)(OC)[C@@H](O)[C@H](C)O2)[C@H](C)[C@@H](O[C@@H]2O[C@H](C)C[C@H](N(C)C)[C@H]2O)[C@](C)(O)C[C@@H](C)C(=O)[C@H](C)[C@@H](O)[C@]1(C)O [Erythromycin, reference compound]	–	–	–	effect of the antibiotic alone on the multidrug-resistant clinical strain [1]: did not affect
70 ± 2	5.5 ± 0.4	12.9 ± 0.2	>200	43.8 ± 1.6 µM	34.4 ± 0.2	32.7 ± 0.7	O=c1c(O)c(-c2ccc(O)c(O)c2)oc2c(Nc3ccccc3)c(O)cc(O)c12 [compound 7, 2-(3,4-Dihydroxyphenyl)-8-(anilino)-3,5,7-trihydroxy-4H–1-benzopyran-4-one]	102 ± 1.5	115 ± 1.2	> 100	MIC, Gentamicin [1 mg/L] yes ([10]; with gentamicin 1 mg/L): > 200 µM; MIC ([10]; Staphylococcus aureus, 24 h, read-out: MIC, Gentamicin [1 mg/L] no, without gentamicin, Table S6): > 200 µM; effect (mode of action with gentamicin) ([11]; MRSA 1584): indifferent (> 1 to < 2 indicates indifference); MIC, Gentamicin [1 mg/L] yes ([11]; MRSA 1584 (aac(6')/aph(2')), with gentamicin 1 mg/L): 31.9 ± 2.5 µM (≈ 12.5 µg/mL); FIC (Fractional Inhibitory Concentration Index) ([11]; MRSA 1584, with gentamicin): 1.07 ± 0.13; MIC ([11]; Staphylococcus aureus, 24 h, read-out: MIC, Gentamicin [1 mg/L] no, MRSA 1584, without gentamicin): 29.9 ± 1.2 µM (≈ 11.8 µg/mL)
–	–	–	–	–	–	–	N#CC(C#N)=NNc1cccc(Cl)c1 [CCCP, carbonyl cyanide 3-chlorophenylhydrazone, reference compound]	–	–	–	efflux inhibition (ethidium bromide accumulation), in words [12]: increases the accumulation of ethidium bromide
–	–	–	–	–	–	–	COc1cccc2c1C(=O)c1c(O)c3c(c(O)c1C2=O)C[C@@](O)(C(=O)CO)C[C@@H]3O[C@H]1C[C@H](N)[C@H](O)[C@H](C)O1 [Doxorubicin, reference compound]	–	–	–	IC50 ([4]; listed as doxorubicin): < 1 µM; IC50 [4]: 0.42 ± 0.03 µM; IC50 ([7]; listed as doxorubicin): < 1 µM; IC50 [7]: 0.19 ± 0.01 µM
